Results on 13 molecules are retold here after US6426356B1, “Imidazoethyl thiophenes” (Ortho-McNeil Pharmaceutical, Inc., priority 1998, dated 2002).

Each structure is given as a SMILES string.

One may read the Ki as the dissociation constant of the complex between target and ligand, obtained from inhibition or displacement.

One assay deals with T1, Alpha-2D Adrenergic Receptor (Rattus norvegicus, UniProt P22909).
T1 construct: aliquots of the synaptic membrane fraction, the ligand ^3H-para-aminoclonidine and test drug; from tissue; host or cells: rat brain cortex synaptic membrane fraction (male Wistar rats)
T1 sequence (P22909 1-465): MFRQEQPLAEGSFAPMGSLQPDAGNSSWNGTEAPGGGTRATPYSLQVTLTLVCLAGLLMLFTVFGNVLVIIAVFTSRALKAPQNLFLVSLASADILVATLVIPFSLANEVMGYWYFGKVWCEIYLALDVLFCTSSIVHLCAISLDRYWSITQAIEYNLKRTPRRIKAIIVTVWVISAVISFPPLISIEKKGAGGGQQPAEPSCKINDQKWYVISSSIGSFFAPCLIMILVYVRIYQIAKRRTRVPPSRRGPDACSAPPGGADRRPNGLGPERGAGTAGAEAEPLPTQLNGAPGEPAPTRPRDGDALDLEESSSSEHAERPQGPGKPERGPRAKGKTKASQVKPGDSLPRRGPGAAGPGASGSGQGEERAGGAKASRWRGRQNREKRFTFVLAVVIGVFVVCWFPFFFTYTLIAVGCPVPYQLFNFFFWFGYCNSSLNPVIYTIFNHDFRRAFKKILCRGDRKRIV
The experiment in a line: Alpha-2D adrenergic receptor binding assay (3H-para-aminoclonidine, rat cortex synaptic membranes).
Settings: not given
Here is the method: Alpha-2D Adrenergic Receptor Binding Assay
Male, Wistar rats (150-250 g, VAF, Charles River, Kingston, N.Y.) are sacrificed by cervical dislocation and their brains removed and placed immediately in ice cold HEPES buffered sucrose. The cortex is dissected out and homogenized in 20 volumes of HEPES sucrose in a Teflon™-glass homogenizer. The homogenate is centrifuged at 1000 g for 10 min, and the resulting supernatant centrifuged at 42,000 g for 10 min. The resulting pellet is resuspended in 30 volumes of 3 mM potassium phosphate buffer, pH 7.5, preincubated at 25 ° C. for 30 min and recentrifuged. The resulting pellet is resuspended as described above and used for the receptor binding assay. […] The incubation is terminated by filtration of the tube contents through glass fiber filter sheets. Following washing of the sheets with 10 mM HEPES buffer, the adhering radioactivity is quantified by liquid scintillation spectrometry.
Binding of the test drug to the receptor is determined by comparing the amount of radiolabeled ligand bound in control tubes without drug to the amount of radiolabeled ligand bound in the presence of the drug. Dose-response data are analyzed with LIGAND, a nonlinear curve fitting program designed specifically for the analysis of ligand binding data.
As for `c1csc(CCc2c[nH]cn2)c1` [Cp-2], the Ki came to 0.1 nM.

Molecule `CCc1csc(CCc2c[nH]cn2)c1` [Cp-8] came in with a Ki of 0.15 nM.

With `c1nc(CCc2ccsc2)c[nH]1` [Cp-3], affinity was put at a Ki of 0.53 nM. Turning to `Clc1ccc(/C=C/c2c[nH]cn2)s1` [Cp-14], the Ki came out at 17 nM. The molecule `Brc1csc(C=Cc2c[nH]cn2)c1` [Cp-16] registered a Ki of 31 nM.

`CCc1ccc(CCc2c[nH]cn2)s1` [Cp-6] yielded a Ki of 1.2 nM. Molecule `Cc1ccc(/C=C/c2c[nH]cn2)s1` [Cp-12] had a Ki of 22 nM. Regarding `CCc1ccc(/C=C/c2c[nH]cn2)s1` [Cp-17], the Ki is 22 nM. `Cc1ccsc1/C=C/c1c[nH]cn1` [Cp-13] showed a Ki of 3.2 nM.

The molecule `Cc1ccc(CCc2c[nH]cn2)s1` [Cp-4] gave a Ki of 1.1 nM. On the same count and under the same terms, the figure for `CCc1csc(C=Cc2c[nH]cn2)c1` [Cp-18] is 26 nM.

The same assay, now with this note: 3H-para-aminoclonidine, rat cortex membranes; read-out: α2D Ki.
As to `CCc1sccc1CCc1c[nH]cn1` [Cp-5], the Ki was determined as 1.8 nM. Same read-out and setting: next, `Cc1ccsc1CCc1c[nH]cn1` [Cp-1]: 0.075 nM.

The subject of the next assay is mouse acetylcholine bromide-induced abdominal constriction. The assay is described as follows: Mouse acetylcholine bromide-induced abdominal constriction assay (MAIT). The settings on record: po; % inhibition of abdominal constriction; dose not given. The format is in vivo. The procedure: Mouse Acetylcholine Bromide-Induced Abdominal Constriction Assay (MAIT)
The mouse acetylcholine bromide-induced abdominal constriction assay, as described by Collier et al. in Brit. […] The test drugs or appropriate vehicle were administered orally (p.o.) and 30 minutes later the animal received an intraperitoneal (i.p.) injection of 5.5 mg/kg acetylcholine bromide (Matheson, Coleman and Bell, East Rutherford, N.J.). The mice were then placed in groups of three into glass bell jars and observed for a ten minute observation period for the occurrence of an abdominal constriction response (defined as a wave of constriction and elongation passing caudally along the abdominal wall, accompanied by a twisting of the trunk and followed by extension of the hind limbs). The percent inhibition of this response to a nociceptive stimulus (equated to % analgesia) was calculated as follows: The % Inhibition of response, i.e., % analgesia is equal to the difference between the number of control animals responding and the number of drug-treated animals responding times 100 divided by the number of control animals responding.
At least 15 animals were used for control and in each of the drug treated groups.
`c1csc(CCc2c[nH]cn2)c1` [Cp-2]: the MAIT is on record as 60 po. On to `CCc1sccc1CCc1c[nH]cn1` [Cp-5], for which the MAIT is given as 67 po. `CCc1csc(CCc2c[nH]cn2)c1` [Cp-8] gave an MAIT of 20 po.

For `c1nc(CCc2ccsc2)c[nH]1` [Cp-3], the MAIT came out at 53 po. Turning to `Clc1ccc(/C=C/c2c[nH]cn2)s1` [Cp-14], the MAIT is listed as 20 po. `Brc1csc(C=Cc2c[nH]cn2)c1` [Cp-16] showed an MAIT of 20 po. `CCc1ccc(CCc2c[nH]cn2)s1` [Cp-6]: the MAIT was 20 po. Take `Cc1ccsc1CCc1c[nH]cn1` [Cp-1]: the MAIT is on record as 93 po. Molecule `Cc1ccc(/C=C/c2c[nH]cn2)s1` [Cp-12] registered an MAIT of 7 po.

`Cc1ccc(CCc2c[nH]cn2)s1` [Cp-4] yielded an MAIT of 7 po.

The test system is the same in another assay. The assay is described as above. To be noted: sc; % inhibition of abdominal constriction; dose not given. The format is in vivo.
As for `CCc1ccc(/C=C/c2c[nH]cn2)s1` [Cp-17], the MAIT was determined as 13 sc. As for `CCc1csc(C=Cc2c[nH]cn2)c1` [Cp-18], the MAIT is on record as 53 sc.
